Laboratory results as given in patent US10752640B2, “Compounds active towards bromodomains” (NUEVOLUTION A/S, priority 2014, dated 2020).

Target: BRD4 protein (Homo sapiens, UniProt O60885)
Experiment: FRET assay, half maximal inhibitory concentration (IC50)
Type: binding
Details: BRD4 protein 50 nM, Biotin-H4KAc4 peptide 12.5 nM; A Further List of Classification
In short: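 Acetylated histone H4 peptide binding (biotin-H4KAc4, 12.5 nM final) to BRD4 (50 nM final) detected by TR-FRET between streptavidin cryptate (2.4 nM) and GST-XL665 antibody (10 nM) in KF/BSA. Buffer: HEPES pH 7.5, NaCl, CHAPS. Compound dilutions from 50 μM in 12.5% DMSO were preincubated with protein for 30 min. Variable-slope IC50.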

| IC50 [nM] | SMILES |
| --- | --- |
| 500 to 1000 | Cc1cc(O)nc2ccc(NC(=O)c3cc(S(=O)(=O)N(C)C)ccc3N3CCC(N(C)C)C3)cc12 (centres unmarked) [S45, 2-[3-(dimethylamino)pyrrolidin-1-yl]-5-(dimethylsulfamoyl)-N-(2-hydroxy-4-methyl-6-quinolyl)benzamide] |
| 500 to 1000 | Cc1cc(O)nc2ccc(NC(=O)c3cc(S(=O)(=O)N(C)C)ccc3N3CCC(CC(C)C)C3)cc12 (centres unmarked) [S46, 5-(dimethylsulfamoyl)-N-(2-hydroxy-4-methyl-6-quinolyl)-2-(3-isobutylpyrrolidin-1-yl)benzamide] |
| < 200 | Cc1cc(O)nc2ccc(NC(=O)c3cc(S(=O)(=O)N(C)C)ccc3N3CCC(CN(C)C)C3)cc12 (centres unmarked) [S47, 2-[3-(dimethylaminomethyl)pyrrolidin-1-yl]-5-(dimethylsulfamoyl)-N-(2-hydroxy-4-methyl-6-quinolyl)benzamide] |
| < 200 | Cc1cc(O)nc2ccc(NC(=O)c3cc(S(=O)(=O)N(C)C)ccc3N3CCC(NC(N)=O)C3)cc12 (centres unmarked) [S48, 5-(dimethylsulfamoyl)-N-(2-hydroxy-4-methyl-6-quinolyl)-2-(3-ureidopyrrolidin-1-yl)benzamide] |
| 500 to 1000 | Cc1cc(O)nc2ccc(NC(=O)c3cc(S(=O)(=O)N(C)C)ccc3N3CCC(N4CCCC4)C3)cc12 (centres unmarked) [S49, 5-(dimethylsulfamoyl)-N-(2-hydroxy-4-methyl-6-quinolyl)-2-(3-pyrrolidin-1-ylpyrrolidin-1-yl)benzamide] |
| 500 to 1000 | Cc1cc(O)nc2ccc(NC(=O)c3cc(S(=O)(=O)N(C)C)ccc3N3CCC(OCC(N)=O)C3)cc12 (centres unmarked) [S50, 2-[3-(2-amino-2-oxo-ethoxy)pyrrolidin-1-yl]-5-(dimethylsulfamoyl)-N-(2-hydroxy-4-methyl-6-quinolyl)benzamide] |
| < 200 | Cc1cc(O)nc2ccc(NC(=O)c3cc(S(=O)(=O)N(C)C)ccc3N3CCC(c4ccccc4)C3)cc12 (centres unmarked) [S51, 5-(dimethylsulfamoyl)-N-(2-hydroxy-4-methyl-6-quinolyl)-2-(3-phenylpyrrolidin-1-yl)benzamide] |
| 500 to 1000 | Cc1cc(O)nc2ccc(NC(=O)c3cc(S(=O)(=O)N(C)C)ccc3N3CCCC3C)cc12 (centres unmarked) [S52, 5-(dimethylsulfamoyl)-N-(2-hydroxy-4-methyl-6-quinolyl)-2-(2-methylpyrrolidin-1-yl)benzamide] |
| < 200 | COCC1CCCN1c1ccc(S(=O)(=O)N(C)C)cc1C(=O)Nc1ccc2nc(O)cc(C)c2c1 (centres unmarked) [S53, 5-(dimethylsulfamoyl)-N-(2-hydroxy-4-methyl-6-quinolyl)-2-[2-(methoxymethyl)pyrrolidin-1-yl]benzamide] |
| 1000 to 10000 | Cc1cc(O)nc2ccc(NC(=O)c3cc(S(=O)(=O)N(C)C)ccc3N3CCC4CN(C)CC43)cc12 (centres unmarked) [S54, 5-(dimethylsulfamoyl)-N-(2-hydroxy-4-methyl-6-quinolyl)-2-(5-methyl-2,3,3a,4,6,6a-hexahydropyrrolo[3,4-b]pyrrol-1-yl)benzamide] |
| 200 to 500 | Cc1cc(O)nc2ccc(NC(=O)c3cc(S(=O)(=O)N(C)C)ccc3N3CCCC3CC(C)C)cc12 (centres unmarked) [S55, 5-(dimethylsulfamoyl)-N-(2-hydroxy-4-methyl-6-quinolyl)-2-(2-isobutylpyrrolidin-1-yl)benzamide] |
| < 200 | Cc1cc(O)nc2ccc(NC(=O)c3cc(S(=O)(=O)N(C)C)ccc3N3CCCC3CN(C)C)cc12 (centres unmarked) [S56, 2-[2-(dimethylaminomethyl)pyrrolidin-1-yl]-5-(dimethylsulfamoyl)-N-(2-hydroxy-4-methyl-6-quinolyl)benzamide] |
| 1000 to 10000 | Cc1cc(O)nc2ccc(NC(=O)c3cc(S(=O)(=O)N(C)C)ccc3N3CCCC3C(C)(C)O)cc12 (centres unmarked) [S57, 5-(dimethylsulfamoyl)-2-[2-(1-hydroxy-1-methyl-ethyl)pyrrolidin-1-yl]-N-(2-hydroxy-4-methyl-6-quinolyl)benzamide] |
| < 200 | Cc1cc(O)nc2ccc(NC(=O)c3cc(S(=O)(=O)N(C)C)ccc3N3CCCC3c3cc[nH]n3)cc12 (centres unmarked) [S59, 5-(dimethylsulfamoyl)-N-(2-hydroxy-4-methyl-6-quinolyl)-2-[2-(1H-pyrazol-3-yl)pyrrolidin-1-yl]benzamide] |
| < 200 | Cc1cc(O)nc2ccc(NC(=O)c3cc(S(=O)(=O)N(C)C)ccc3N3CCCC3c3nnn[nH]3)cc12 (centres unmarked) [S60, 5-(dimethylsulfamoyl)-N-(2-hydroxy-4-methyl-6-quinolyl)-2-[2-(1H-tetrazol-5-yl)pyrrolidin-1-yl]benzamide] |
| 500 to 1000 | Cc1cc(O)nc2ccc(NC(=O)c3cc(S(=O)(=O)N(C)C)ccc3N3CCC4C3CCCN4C)cc12 (centres unmarked) [S61, 5-(dimethylsulfamoyl)-N-(2-hydroxy-4-methyl-6-quinolyl)-2-(4-methyl-3,3a,5,6,7,7a-hexahydro-2H-pyrrolo[3,2-b]pyridin-1-yl)benzamide] |
| < 200 | Cc1cc(O)nc2ccc(NC(=O)c3cc(S(=O)(=O)N(C)C)ccc3N3CCCC3C(=O)N(C)C)cc12 (centres unmarked) [S62, 1-[4-(dimethylsulfamoyl)-2-[(2-hydroxy-4-methyl-6-quinolyl)carbamoyl]phenyl]-N,N-dimethyl-pyrrolidine-2-carboxamide] |
| 500 to 1000 | Cc1cc(O)nc2ccc(NC(=O)c3cc(S(=O)(=O)N(C)C)ccc3N3C4CCC3CC(C)(O)C4)cc12 (centres unmarked) [S65, 5-(dimethylsulfamoyl)-2-(3-hydroxy-3-methyl-8-azabicyclo[3.2.1]octan-8-yl)-N-(2-hydroxy-4-methyl-6-quinolyl)benzamide] |

| IC50 [nM] | SMILES |
| --- | --- |
| 500 to 1000 | Cc1cc(O)nc2ccc(NC(=O)c3cc(S(=O)(=O)N(C)C)ccc3N3CC(C)C(O)CC3C)cc12 (centres unmarked) [S66, 5-(dimethylsulfamoyl)-2-(4-hydroxy-2,5-dimethyl-1-piperidyl)-N-(2-hydroxy-4-methyl-6-quinolyl)benzamide] |
| < 200 | Cc1cc(O)nc2ccc(NC(=O)c3cc(S(=O)(=O)N(C)C)ccc3N3CCCCC3c3ccccc3)cc12 (centres unmarked) [S67, 5-(dimethylsulfamoyl)-N-(2-hydroxy-4-methyl-6-quinolyl)-2-(2-phenyl-1-piperidyl)benzamide] |
| 500 to 1000 | CCN(CC)S(=O)(=O)c1ccc(N2CCCC2)c(C(=O)Nc2ccc3nc(O)cc(C)c3c2)c1 [S71, 5-(diethylsulfamoyl)-N-(2-hydroxy-4-methyl-6-quinolyl)-2-pyrrolidin-1-yl-benzamide] |
| 500 to 1000 | CCN(CC)S(=O)(=O)c1ccc(N2CCCCC2)c(C(=O)Nc2ccc3nc(O)cc(C)c3c2)c1 [S72, 5-(diethylsulfamoyl)-N-(2-hydroxy-4-methyl-6-quinolyl)-2-(1-piperidyl)benzamide] |
| 500 to 1000 | Cc1cc(O)nc2ccc(NC(=O)c3cc([N+](=O)[O-])cnc3N3CCCCC3C)cc12 (centres unmarked) [S74, N-(2-hydroxy-4-methyl-6-quinolyl)-2-(2-methyl-1-piperidyl)-5-nitro-pyridine-3-carboxamide] |
| 1000 to 10000 | O=C1CCc2cc(NC(=O)c3cc([N+](=O)[O-])ccc3N3CCCC3)ccc2N1 [S76, 5-nitro-N-(2-oxo-3,4-dihydro-1H-quinolin-6-yl)-2-pyrrolidin-1-yl-benzamide] |
| 1000 to 10000 | CN1C(=O)COc2cc(NC(=O)c3cc([N+](=O)[O-])ccc3N3CCCC3)ccc21 [S77, N-(4-methyl-3-oxo-1,4-benzoxazin-7-yl)-5-nitro-2-pyrrolidin-1-yl-benzamide] |
| 1000 to 10000 | O=C1CCc2cc(NC(=O)c3cc(S(=O)(=O)N4CCOCC4)ccc3N3CCCC3)ccc2N1 [S78, 5-morpholinosulfonyl-N-(2-oxo-3,4-dihydro-1H-quinolin-6-yl)-2-pyrrolidin-1-yl-benzamide] |
| 1000 to 10000 | CN1C(=O)COc2cc(NC(=O)c3cc(S(=O)(=O)N4CCOCC4)ccc3N3CCCC3)ccc21 [S79, N-(4-methyl-3-oxo-1,4-benzoxazin-7-yl)-5-morpholinosulfonyl-2-pyrrolidin-1-yl-benzamide] |
| 1000 to 10000 | CN1CCN(Cc2ccc(N3CCCC3)c(C(=O)Nc3ccc4c(c3)CCC(=O)N4)c2)CC1 [S80, 5-[(4-methylpiperazin-1-yl)methyl]-N-(2-oxo-3,4-dihydro-1H-quinolin-6-yl)-2-pyrrolidin-1-yl-benzamide] |
| < 200 | Cc1cc(O)nc2ccc(NC(=O)c3cc(CN(C)CCO)ccc3N3CCCC3)cc12 [S81, 5-[[2-hydroxyethyl(methyl)amino]methyl]-N-(2-hydroxy-4-methyl-6-quinolyl)-2-pyrrolidin-1-yl-benzamide] |
| < 200 | Cc1cc(O)nc2ccc(NC(=O)c3cc(CNCC4CCCO4)ccc3N3CCCC3)cc12 (centres unmarked) [S82, N-(2-hydroxy-4-methyl-6-quinolyl)-2-pyrrolidin-1-yl-5-[(tetrahydrofuran-2-ylmethylamino)methyl]benzamide] |
| < 200 | Cc1cc(O)nc2ccc(NC(=O)c3cc(CN4CCC(N(C)C)C4)ccc3N3CCCC3)cc12 (centres unmarked) [S83, 5-[[3-(dimethylamino)pyrrolidin-1-yl]methyl]-N-(2-hydroxy-4-methyl-6-quinolyl)-2-pyrrolidin-1-yl-benzamide] |
| < 200 | Cc1cc(O)nc2ccc(NC(=O)c3cc(CN4CCC(O)C4)ccc3N3CCCC3)cc12 (centres unmarked) [S84, N-(2-hydroxy-4-methyl-6-quinolyl)-5-[(3-hydroxypyrrolidin-1-yl)methyl]-2-pyrrolidin-1-yl-benzamide] |
| < 200 | COC[C@@H]1CCCN1Cc1ccc(N2CCCC2)c(C(=O)Nc2ccc3nc(O)cc(C)c3c2)c1 [S85, N-(2-hydroxy-4-methyl-6-quinolyl)-5-[[(2S)-2-(methoxymethyl)pyrrolidin-1-yl]methyl]-2-pyrrolidin-1-yl-benzamide] |
| < 200 | Cc1cc(O)nc2ccc(NC(=O)c3cc(CN4CCN(CCO)CC4)ccc3N3CCCC3)cc12 [S86, 5-[[4-(2-hydroxyethyl)piperazin-1-yl]methyl]-N-(2-hydroxy-4-methyl-6-quinolyl)-2-pyrrolidin-1-yl-benzamide] |
| < 200 | Cc1cc(O)nc2ccc(NC(=O)c3cc(CN4CCCN(C)CC4)ccc3N3CCCC3)cc12 [S87, N-(2-hydroxy-4-methyl-6-quinolyl)-5-[(4-methyl-1,4-diazepan-1-yl)methyl]-2-pyrrolidin-1-yl-benzamide] |
